Patent US5470854A, “2-phenylbenzo[B]furans, process for their manufacture and pharmaceutical preparations containing them” (Schering Aktiengesellschaft, priority 1991, dated 1995)

What was measured:
oestrogen receptor = molecular target: T1, oestrogen receptor (Bos taurus, UniProt P49884); assay: Relative bonding affinity to the oestrogen receptor (competition with 3H-17β-Estradiol); assay type: binding, calf; details: for RBA* (relative bonding affinity to the oestrogen receptor): calves' uteri, in relation to 17β-estradiol = 100
T1 construct: oestrogen receptor of a calf's uterus; from tissue; host or cells: calf uterus
T1 sequence (P49884 1-596): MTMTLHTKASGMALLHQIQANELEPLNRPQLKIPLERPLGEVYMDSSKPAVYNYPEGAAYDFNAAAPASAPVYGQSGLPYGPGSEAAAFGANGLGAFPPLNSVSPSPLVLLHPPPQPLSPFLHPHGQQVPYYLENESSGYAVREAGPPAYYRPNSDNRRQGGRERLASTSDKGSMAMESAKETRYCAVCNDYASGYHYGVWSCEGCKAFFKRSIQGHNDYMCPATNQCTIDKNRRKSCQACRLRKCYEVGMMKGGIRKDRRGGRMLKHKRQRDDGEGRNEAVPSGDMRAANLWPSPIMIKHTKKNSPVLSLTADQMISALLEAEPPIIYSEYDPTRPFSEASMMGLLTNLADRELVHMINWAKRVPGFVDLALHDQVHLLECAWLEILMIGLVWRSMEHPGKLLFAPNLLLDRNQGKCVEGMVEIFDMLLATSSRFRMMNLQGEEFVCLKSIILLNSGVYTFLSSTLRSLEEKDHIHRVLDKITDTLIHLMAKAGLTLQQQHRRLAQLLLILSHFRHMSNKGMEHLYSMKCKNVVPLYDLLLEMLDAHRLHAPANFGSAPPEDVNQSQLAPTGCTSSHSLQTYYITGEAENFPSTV
Source text: The test methodology is described in Cancer Treatment Reviews 1984, 11, 147.
*Relative bonding affinities to the oestrogen receptor of calves' uteri,
in relation to 17β-estradiol = 100

[1] = test system: human MCF-7 mamma carcinoma cells; assay: Effect on cell growth of MCF-7 cells; assay type: cell-based; details: for activity at 10 µM / activity at 1 µM / activity at 0.1 µM / activity at 5 µM: Homo sapiens, MCF7, mean of 16 individual results, read-out: T/C (corrected); for activity at 10 µM: 1 × 10^-5 M; for activity at 1 µM: 1 × 10^-6 M; for activity at 0.1 µM: 1 × 10^-7 M; for activity at 5 µM: 5 × 10^-6 M
Method: Data given as corrected T/C values (%).
^a Inhibiting effect on MCF7 cells: quotient of optical densities fro
standard deviation through error reckoning according to GAUSS.
^b Substance concentration (mol/1) in incubation medium.
^c Significant p < 0.01 in relation to control group (C).

uterus of infantile mice [2] = assay: Anti-uterotrophic test (in-vivo test on infantile mice); details: simultaneous 0.4 μg oestron/animal/day; for anti-uterotrophic test, effect: uterus dry weight (mg)/body weight (g) × 100
Method: (§1) The effectiveness of these compounds was found in an in-vivo test on infantile mice. This test is extensively described in Cancer Treatment Reviews 1984, 11, 147, and J. Med. Chem., 1984, 27, 1439.
(§2) ^a dosage/animal, administered s.c. on three consecutive days in oliv
(§3) ^b uterus dry weight (mg)/body weight (g) × 100, determined 24
(§4) hours after the final injection.
^c simultaneous administration of 0.4 μg oestron/animal/day.

uterus of infantile mice [3] = assay: Uterotrophic test (in-vivo test on infantile mice); details: uterus dry weight (mg)/body weight (g) × 100
Method: as §1, §2, §3, §4

[4] = 1 μg/animal s.c. on three consecutive days
[5] = 5 μg/animal s.c. on three consecutive days
[6] = 25 μg/animal s.c. on three consecutive days
[7] = 125 μg/animal s.c. on three consecutive days

Compound | affinity to the oestrogen (estradiol) receptor, in words (oestrogen receptor) | RBA* (relative bonding affinity to the oestrogen receptor) (oestrogen receptor) | effect on the growth of MCF-7 / hormone-dependent tumour cells, in words [1] | activity at 10 µM [1] | activity at 1 µM [1] | activity at 0.1 µM [1] | activity at 5 µM [1] | anti-uterotrophic test, inhibition (uterus of infantile mice [2]; 5 μg/animal s.c.) | anti-uterotrophic test, inhibition (uterus of infantile mice [2]; 25 μg/animal s.c.) | anti-uterotrophic test, inhibition (uterus of infantile mice [2]; 125 μg/animal s.c.) | anti-uterotrophic test, effect (uterus of infantile mice [2]; 5 μg/animal s.c.) | anti-uterotrophic test, effect (uterus of infantile mice [2]; 25 μg/animal s.c.) | anti-uterotrophic test, effect (uterus of infantile mice [2]; 125 μg/animal s.c.) | uterotrophic test, effect (uterus of infantile mice [3]; [4]) | uterotrophic test, effect (uterus of infantile mice [3]; [5]) | uterotrophic test, effect (uterus of infantile mice [3]; [6]) | uterotrophic test, effect (uterus of infantile mice [3]; [7]) | also measured
CCc1c(-c2ccc(O)cc2)sc2cc(O)ccc12 [Compound 104b, 3-ethyl-6-hydroxy-2-(4-hydroxyphenyl)benzo[b]thiophen] | greatest affinity in relation to estradiol | 27,6 | strongly inhibiting effect | 4.2 ± 6% | 91.9 ± 21.2% | 94 ± 21.2% | 5.7 ± 5.8% | 32% | 33% | 31% | 37.9 ± 6.9 mg/g × 100 | 37.3 ± 4.2 mg/g × 100 | 38.0 ± 5.4 mg/g × 100 | 18.0 ± 4.0 mg/g × 100 | 22.7 ± 5.9 mg/g × 100 | 29.3 ± 4.5 mg/g × 100 | 39.9 ± 6.1 mg/g × 100 | 
Oc1ccc(-c2oc3cc(O)ccc3c2CCCCCCN2CCCCC2)cc1 [Compound 68b, 6-hydroxy-2-(4-hydroxyphenyl)-3-(6-N-piperidylhexyl)benzo[b]furan] |  | 5,4 |  | -9.6 ± 2.9% | 42.9 ± 7.7% | 58.7 ± 17.1% | 12.1 ± 5.4% | 10% | 7% |  | 58.6 ± 7.1 mg/g × 100 | 59.9 ± 6.6 mg/g × 100 | 68.7 ± 9.9 mg/g × 100 | 18.3 ± 1.9 mg/g × 100 | 18.8 ± 3.0 mg/g × 100 | 24.4 ± 3.8 mg/g × 100 | 21.4 ± 3.7 mg/g × 100 | 
Oc1ccc(-c2sc3cc(O)ccc3c2CCCCCCN2CCCCC2)cc1 [Compound 119b, 6-hydroxy-2-(4-hydroxyphenyl)-3-(6-N-piperidinylhexyl)benzo[b]thiophen] |  | 7,1 | strongly inhibiting effect | -13.5 ± 3.2% | 48.1 ± 12.4% | 18.8 ± 7.2% | 2 ± 3.6% | 73% | 65% | 61% | 26.1 ± 5.4 mg/g × 100 | 22.8 ± 2.6 mg/g × 100 | 30.0 ± 5.6 mg/g × 100 | 19.8 ± 3.1 mg/g × 100 | 20.7 ± 5.0 mg/g × 100 | 19.4 ± 2.1 mg/g × 100 | 34.2 ± 9.5 mg/g × 100 | 
CCc1c(-c2ccc(O)cc2)sc2ccc(O)cc12 [Compound 104a, 3-ethyl-5-hydroxy-2-(4-hydroxyphenyl)benzo[b]thiophen] | greatest affinity in relation to estradiol | 59,6 | strongly inhibiting effect | 3.2 ± 3.2% | 59.1 ± 15.9% | 61.2 ± 22.1% | 2.4 ± 3.9% | 27% |  | 30% | 37.0 ± 3.4 mg/g × 100 | 44.1 ± 6.7 mg/g × 100 | 36.3 ± 4.0 mg/g × 100 | 30.3 ± 7.7 mg/g × 100 | 38.5 ± 5.4 mg/g × 100 | 44.2 ± 6.6 mg/g × 100 | 19.6 ± 5.2 mg/g × 100 | anti-uterotrophic test, inhibition (uterus of infantile mice [2]; 1 μg/animal s.c.): 32%; anti-uterotrophic test, effect (uterus of infantile mice [2]; 0.2 μg/animal s.c.): 49.8 ± 1.4 mg/g × 100; anti-uterotrophic test, effect (uterus of infantile mice [2]; 1 μg/animal s.c.): 35.3 ± 7.3 mg/g × 100; uterotrophic test, effect (uterus of infantile mice [3]; 0.2 μg/animal s.c. on three consecutive days, 24 hours after final injection): 27.6 ± 3.8 mg/g × 100
CCc1c(-c2ccc(O)cc2)oc2ccc(O)cc12 [Compound 62a, 3-ethyl-5-hydroxy-2-(4-hydroxyphenyl)benzo[b]furan] | greatest affinity in relation to estradiol | 15,7 | strongly inhibiting effect | -0.2 ± 2.9% | 49 ± 12.6% | 65 ± 13.5% | 0.3 ± 3.8% | 10% | 22% |  | 39.1 ± 4.2 mg/g × 100 | 35.6 ± 2.6 mg/g × 100 |  | 10.5 ± 1.9 mg/g × 100 | 14.6 ± 2.4 mg/g × 100 | 19.0 ± 4.4 mg/g × 100 |  | anti-uterotrophic test, effect (uterus of infantile mice [2]; 1 μg/animal s.c.): 44.2 ± 7.8 mg/g × 100
CCCc1c(-c2ccc(O)cc2)sc2cc(O)ccc12 [Compound 106b, 6-hydroxy-2-(4-hydroxyphenyl)-3-propylbenzo[b]thiophen] | greatest affinity in relation to estradiol | 25,1 | strongly inhibiting effect | 1.8 ± 3.1% | 69 ± 15.1% | 81.7 ± 17.5% | 3.6 ± 3% | 34% | 39% | 40% | 37.0 ± 6.5 mg/g × 100 | 35.3 ± 6.7 mg/g × 100 | 34.8 ± 6.2 mg/g × 100 | 16.6 ± 4.6 mg/g × 100 | 22.4 ± 3.1 mg/g × 100 | 24.5 ± 4.8 mg/g × 100 | 35.1 ± 4.9 mg/g × 100 | 
Cc1c(-c2ccc(O)cc2)sc2cc(O)ccc12 [Compound 102b, 6-hydroxy-2-(4-hydroxyphenyl)-3-methylbenzo[b]thiophen] |  | 9,7 | strongly inhibiting effect | 10.9 ± 6.7% | 133 ± 43.4% | 125 ± 37.2% | 54.9 ± 17.9% | 7% | 30% | 31% | 47.0 ± 7.8 mg/g × 100 | 38.5 ± 3.7 mg/g × 100 | 38.1 ± 5.8 mg/g × 100 | 10.9 ± 2.1 mg/g × 100 | 12.1 ± 1.9 mg/g × 100 | 16.9 ± 2.9 mg/g × 100 | 21.9 ± 4.6 mg/g × 100 | 
CCCc1c(-c2ccc(O)cc2)sc2ccc(O)cc12 [Compound 106a, 5-hydroxy-2-(4-hydroxyphenyl)-3-propylbenzo[b]thiophen] | greatest affinity in relation to estradiol | 21,9 | strongly inhibiting effect | 0.3 ± 3.5% | 35 ± 10.4% | 77.1 ± 21.4% | 2.3 ± 4.1% | 27% |  |  | 34.4 ± 7.1 mg/g × 100 | 48.0 ± 4.2 mg/g × 100 | 48.8 ± 4.1 mg/g × 100 | 25.4 ± 6.2 mg/g × 100 | 32.7 ± 5.0 mg/g × 100 | 35.3 ± 7.5 mg/g × 100 | 51.2 ± 9.9 mg/g × 100 | 
